Reference: patent US12070463B2, “Compositions and methods for the treatment of seizure caused by brain tumor” (Board Of Supervisors Of Louisiana State University And …, priority 2015, dated 2024)
“Also recorded” adds a separate entry of the source.

Tests used:
[1] = Pentylenetetrazol (PTZ) test, locomotor seizures by modified Racine's score; assay type: in vivo, mice; settings: single dose 60 mg/kg i.p. 2 h before PTZ 40 mg/kg i.p.; vs vehicle
Method: A single dose (i.p.) of a LAU compound 60 mg/kg; ip.) or vehicle (0.1 mL of sterile 0.9% sodium chloride) was administered 2 h before a single dose of pentylenetetrazol (PTZ) (40 mg/kg; i.p.). Data represent average and bars±S.E.M. t-test between vehicle and for each LAU compound: LAU0901 p<0.031; others: p<0.0001 at 60 mins. Maximum seizure levels and the percentage reduction from vehicle after PTZ injection are shown. Locomotor seizures were video recorded and quantified according to a modified Racine's score (Stage: 0 normal locomotor activity. Stage 1, behavioral arrest, Stage 2: head nodding; stage 3, facial movements and contralateral forelimb dorms).
Pentylenetetrazol test: The systemic administration of pentylenetetrazol (PTZ) in rodents, an accepted model to test the potential anti-convulsive effect (Loscher, 2011) was used to evaluate seizure susceptibility in mice with GBM cell implantation. It has been seen that systemic administration of PTZ at 35 mg/kg is useful as a sub-convulsive dose to evaluate seizures after brain damage. Animals were placed in individual Plexiglas cages (28×28×37.5 cm) and then a single dose of PTZ (Sigma, St. Louis, MO) at 35 mg/kg were administered intraperitoneally (i.p.) to each animal. Locomotor seizures were quantified according to a modified Racine's Score classified as previously described (Musto et al., 2009, 2011).

Lyn kinase = assay: Phospho-Lyn in hippocampal synapsis after SE, immunohistology; assay type: in vivo, mice; settings: hippocampus
U87MG cells = assay: Hippocampal U87MG GBM xenograft, tumor growth by in vivo bioluminescent imaging; design: species or system BALB/c (nu/nu) mice
Method: FIGS. 3A-3C illustrate that a PAF-r antagonist reduces GBM tumor size. U87MG cells were implanted in the right dorsal CA3 hippocampal region of BALB/c (nu/nu) mice. Intracranial tumor growth was quantified using Jo vivo bioluminescent imaging on days 10 and 25. Saline (vehicle) or LAU-0901 (60 mg/kg/day; i.p., n=6 in each group) was administered daily from day 10, during 5 days.
Experimental Design and Methods: PAF-r deficient and wild type mice and athymic nude mice, 6 to 8 weeks of age (Harlan Laboratories) mice were used. The xerograph GBM mouse model is representative of this tumor, which has a narrow survival window. These cells form a massive and homogenous mass from tumor-initiating cells, are localized, and invade neuronal tissue. This model is a predictor of therapeutic responses in human glioblastoma patients. U87MG cells (FIGS. 2A-3C) with a luciferase reporter gene were injected (5×10^5 cells in […] serum-free DMEM) into the right dorsal CA3 hippocampal region (coordinates: 2.5 mm lateral, 1.7 mm posterior to the bregma, and 1.5 depth) of mice (6-8 wks of age) (Marrero et al., 2014).
In vivo imaging analysis: Intracranial tumor growth was quantified by bioluminescent imaging using an in vivo imaging system and procedures as described by Marrero et al., 2014, incorporated herein by reference in its entirety.

[2] = Seizure susceptibility and survival after status epilepticus (SE); assay type: in vivo, BALB/c (nu/nu) mice; settings: 60 mg/kg i.p. daily for 5 days, 24 h after SE
Method: BABL/c (nu/nu) mice received compound LAU-0901 (60 mg/kg; i.p.) or saline daily for 5 days 24 h after SE.
GBM cells were implanted into PAF-r deficient or wild type mice. Lyn kinase inhibitor (Dasatinib; 0.01 mL/g) (Luo et al., 2000) or vehicle (propylene glycol/water) was administered intraperitoneally at 14 d after GBM implantation and continues for 14 d. Alternatively, BALB/c, (nu/nu) mice received LAU-0901 (60 mg/kg; i.p.) or saline daily for 5 days (n=4-5 per group) 24 h after SE. Weight, locomotion, survival rate, behavior, in vivo tumor growth, and GBM cells were analyzed.

MIP-2 [3] = assay: Hippocampal MIP-2 after neuroinflammation (LPS / post status epilepticus), bead-based immunodetection; assay type: in vivo, mice; settings: 60 mg/kg/daily for 5 days i.p.
Method: MIP-2 was measured using bead-based immunodetection. Values are means±SD: *P<0.05 (two-way repeated-measures ANOVA).
MIP-2 was measured using bead-based immunodetection respectively. Diamonds: interval of confidence; diamond internal horizontal line; group mean; bar lines; standard deviation. Data represent average and bars±S.E.M; n=3 of each group. ANOVA one way, *=p<0.05.
Pro-inflammatory molecular analysis: LC-MS/MS-based mediator lipidomic analysis will be evaluated as described previously (Musto et al., 2011, Musto and Samii, 2011), chemokine analysis was performed using commercial enzyme-linked immune-absorbent assay (Rodent MAPs Myira RBM, USA), and matrix metalloproteinase (MMP) activity were investigated by gelatin zymography assay (Ramaswamy et al., 2014).

microglia = settings: in vivo; cited from earlier work
[4] = test system: dysmorphic filopodia-like spines; assay: Dysmorphic filopodia-like dendritic spines in epileptogenesis, Golgi staining; assay type: in vivo, mice; settings: 7 days after SE
Method: Cyto-architecture hippocampal neurons, dendrites and dendritic spines was evaluated using rapid Golgi staining and the DIOLISTIC labeling approach, as shown in FIG. 12A. Then dendrites and dendritic spines from pyramidal cells were reconstructed, analyzed, and visualized in a 30 shape of neurons from the ipsi and contralateral hippocampal region using light and confocal microscopy, digitally-traced, mediated computational analysis.

MIP-2 [5] = assay: MIP-2 in mice with GBM; assay type: in vivo; settings: compared with vehicle

## 2,4,6-trimethyl-1,4-dihydro-pyridine-3,5-dicarboxylic acid 5-[2-(3,4-dichlorophenyl) sulfanethyl ester 3-[1,3-di-(4-morpholinyl)-2-propyl-1-ester [LAU-0901]
[1]
  neuronal hyper-excitability (locomotor seizures after PTZ): counteract neuronal hyper-excitability
Lyn kinase
  puncta phospho-Lyn and co-localization with pre- and post-synaptic markers: low puncta phospho-Lyn
U87MG cells; 60 mg/kg/day i.p. for 5 days from day 10, representative images, 10 week-survival period, vs saline
  tumor size: dramatically reduced
U87MG cells; day 25, 60 mg/kg/day i.p. for 5 days from day 10
  tumor size diminished compared to saline-treated group: 80%
U87MG cells; weeks 8 and 10, compared to saline group
  body weight: increased
[2]
  seizure severity: reduced seizure severity
MIP-2 [3]; LPS one week after status epilepticus, vs saline (FIG. 4)
  hippocampal levels of MIP-2: reduced
MIP-2 [3]; LPS or one week after status epilepticus (PSE), vs vehicle (FIG. 20), 60 mg/kg
  hippocampal levels of MIP-2: limited; also recorded: reduces
microglia
  microglia activation: reduces microglia activation
[4]
  average spine length for dysmorphic filopodia-like spines: increased in the vehicle-treated compared to the LAU-0901-treated group

## CC(C)Cc1ccc([C@@H](C)C(=O)NS(C)(=O)=O)cc1 [repertaxin]
MIP-2 [5]
  increases of MIP-2: higher in those mice treated with vehicle
